Assays:
C. glabrata Y110 [1] = assay: Synergy experiments (8 by 8 dilution matrix, growth by UV turbidity at 630 nm); assay type: cell-based; conditions: for UV (Candida growth, 630 nm): 24 hours
C. glabrata Y110 [2] = assay: MIC and growth inhibition at several pH's in SLM or RPMI medium; assay type: cell-based; conditions: figures 5 and 6

| SMILES | decline of effective concentration as compared to its MIC value (C. glabrata Y110 [1]; 0.0008 µg/ml 5-fluorocytosine with 0.02 mg/ml lactoferrin) [times] | UV (Candida growth, 630 nm) (C. glabrata Y110 [1]; Fluconazole 0.2 mg/ml alone) | UV (Candida growth, 630 nm) (C. glabrata Y110 [1]; Fluconazole 0.33 mg/ml alone) | UV (Candida growth, 630 nm) (C. glabrata Y110 [1]; Fluconazole 0.5 mg/ml alone) | effect of an increase in pH of the medium on inhibition (C. glabrata Y110 [2]) |
| --- | --- | --- | --- | --- | --- |
| Nc1nc(=O)[nH]cc1F [5-Fluorocytosine, 5-fluorocytosine] | 30 |  |  |  |  |
| OC(Cn1cncn1)(Cn1cncn1)c1ccc(F)cc1F [Fluconazole, fluconazole] |  | 0.003 | 0.003 | 0.004 | more efficient inhibition |
